Patent US20060194815A1, “Methods and compositions for modulating serum cortisol levels” (priority 2003, published 2006)
“Also recorded” adds a separate entry of the source.

Key:
P-450SCC enzyme = assay: Immunoblot of P-450SCC enzyme expression in Y1 cells; assay type: cell-based, mouse; conditions: Y1 cell extracts
Procedure: (§1) At the end of the treatment protocol described above, Y1 cells at 90% confluency were washed 2 times with PBS, sonicated 15 seconds in extraction buffer and centrifuged at 18,500 g for 15 minutes at 4° C. Pellets were resuspended in ice-cold lysis buffer (1% Nonidet 40 in extraction buffer), sonicated briefly, and incubated on ice for 1 hour. After centrifugation (22,500 g×30 min, 4° C.), the supernatant was mixed in sample buffer 6× (0.27 M SDS, 0.6 M dithiothreitol, 0.18 M bromphenol blue in 7 ml of 0.5 M Tris-HCl, pH 6.8, and 3 ml glycerol) and boiled for 5 minutes. Proteins were subjected to SDS-PAGE (4-20% gradient SDS polyacrylamide gel) and electrophoretically transferred onto nitrocellulose membranes. The transblot sheets were blocked with 5% non fat dry milk in 25 mM Tris HCl, pH 7.5, 150 mM NaCl, and 0.1% Tween 20 overnight at 4° C. Membranes were then incubated with appropriately diluted primary antibodies 1:800 for anti-P-450SCC (Research Diagnostics Inc. Flanders, N.J.) and 1:200 for anti-StAR (Amri et al., 1996), and the reaction was detected by a peroxidase-conjugated secondary antibody (Santa Cruz Biotechnology, Santa Cruz, Calif.) and enhanced chemiluminescence (Amersham Life, Arlington Heights, Ill.). The densities of the appropriate bands were determined using the OptiQuant Acquisition & Analysis software (Packard BioScience).

[1] = tested on: steroidogenesis acute regulatory protein (StAR); assay: Immunoblot of StAR protein levels in Y1 cells; assay type: cell-based, mouse; conditions: 1 μM procaine, 48 hour treatment, 3 hour dbcAMP
Procedure: as §1

HMG-CoA reductase [2] = assay: HMG-CoA reductase activity in treated Y1 cells; assay type: cell-based, mouse; conditions: increasing concentrations
Procedure: (§2) Cells were washed twice with ice-cold PBS and incubated with ice-cold assay buffer (0.1M sucrose, 40 mM KH2PO4, 30 mM EDTA, 50 mM KCl, 5 mM DTT, 0.25% (v/v) of Brij 96, at pH 7.4) on ice for 20 minutes. After centrifugation for 3 minutes at 14000 g (4° C.) the supernatants were collected and used for HMG-CoA reductase activity assay. The total 150 l assay mixture contained 100-200 g protein and the NADPH-generating system (2.5 mM NADP, 20 mM glucose 6-phosphate and 20 U/ml glucose 6-phosphate dehydrogenase). The reaction was started by adding substrate (^14C-HMG-CoA, 0.1 Ci) and stopped after 45 minutes by adding 10-1 of HCl 6M. ^3H-mevalonolactone was also added to the samples as an extraction recovery marker. After an additional 30 minutes incubation time, to allow complete lactonization of the product, the mixture was centrifuged. The supernatant was applied to Bond-Elut NH2 column and eluted with 1 ml of toluene/acetone (3:1). The eluate was discarded and further 4 ml of toluene/acetone was applied to the column and collected in a scintillation vial for counting ^14C-mevalonate and 3H-mevalonolactone signals (Berkhout et al., 1990).

HMG-CoA reductase [3] = target: T1, HMG-CoA reductase (Mus musculus, UniProt Q01237); assay: Direct effect on HMG-CoA reductase activity in sonicated Y1 cell homogenates; assay type: biochemical; conditions: control 10.1±0.9
T1 construct: endogenous in cells; host or cells: Y1 mouse adrenal tumor cells (Brij 96 extract; sonicated homogenate for the direct test)
T1 sequence (Q01237 1-887): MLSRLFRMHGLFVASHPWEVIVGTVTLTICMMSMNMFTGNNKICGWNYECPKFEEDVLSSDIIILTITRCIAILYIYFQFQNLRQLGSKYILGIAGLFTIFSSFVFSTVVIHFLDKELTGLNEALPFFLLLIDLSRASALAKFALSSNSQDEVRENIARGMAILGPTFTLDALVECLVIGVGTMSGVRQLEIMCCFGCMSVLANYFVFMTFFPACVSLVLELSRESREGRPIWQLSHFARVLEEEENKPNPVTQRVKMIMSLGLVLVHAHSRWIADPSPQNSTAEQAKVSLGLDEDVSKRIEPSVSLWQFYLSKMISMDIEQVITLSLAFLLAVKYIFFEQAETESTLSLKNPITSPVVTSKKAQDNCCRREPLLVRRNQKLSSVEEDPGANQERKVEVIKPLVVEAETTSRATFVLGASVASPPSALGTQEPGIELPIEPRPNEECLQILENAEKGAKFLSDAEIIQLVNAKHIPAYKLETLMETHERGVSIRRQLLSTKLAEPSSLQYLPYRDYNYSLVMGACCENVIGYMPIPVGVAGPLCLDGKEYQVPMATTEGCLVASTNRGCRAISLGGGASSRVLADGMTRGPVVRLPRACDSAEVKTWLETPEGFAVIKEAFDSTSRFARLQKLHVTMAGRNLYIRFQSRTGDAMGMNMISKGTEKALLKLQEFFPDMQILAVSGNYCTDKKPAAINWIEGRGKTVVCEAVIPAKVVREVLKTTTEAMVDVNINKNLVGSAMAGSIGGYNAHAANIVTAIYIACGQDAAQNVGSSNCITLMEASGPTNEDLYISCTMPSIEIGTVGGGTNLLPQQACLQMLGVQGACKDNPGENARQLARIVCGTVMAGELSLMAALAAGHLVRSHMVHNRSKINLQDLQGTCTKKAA
Procedure: as §2
In separate experiments cells were disrupted by sonication and then treated with procaine. The direct effect of the treatment on HMG-CoA reductase activity in the homogenates was determined as described above.

HMG-CoA reductase mRNA = HMG-CoA reductase mRNA expression by Q-PCR in Hepa1-6 cells; assay type: cell-based; conditions: Hepa1-6 mouse liver hepatoma cells
Procedure: After treatment, cells were stimulated with 1 mM dbcAMP for 24 hours. At the end of the incubation, total cell RNA was extracted using. RNA STAT-60 (Tel-Test Inc, Friendswood, Tex.) according to the manufacturer's instructions. HMG-CoA reductase mRNA was quantified by Q-PCR using the ABI Prism 7700 sequence detection system (Perlin-Elmer/Applied Biosystems, Foster City, Calif.). RT reaction was performed using TaqMan® Reverse Transcription Reagents with 1 g total RNA and random hexamers as primers for each reaction according to the manufacturer's instructions. For quantifying mouse HMG-CoA reductase mRNA with Q-PCR, the primers were designed according to GenBank Accession Number BC 019782 using PE/AB Primer Express software, which is specifically designed for the selection of primers and probes. The forward primer was 5′-[…]-3′ (22 nucleotides) and reverse primer was 5′-[…]-3′ (23 nucleotides), respectively. The primers were synthesized by Bio-Synthesis Inc. (Lewisville, Tex.). Reactions were performed in a reaction mixture consisting of a 20 l volume solution containing 10 l SYBR® Green PCR Master Mix and 1 l primers mix (5 M each) with 2 l cDNA.

**Q.** With `CCN(CC)CCOC(=O)c1ccc(N)cc1` [procaine] as the molecule, how does the “expression of the P-450SCC enzyme (immunoblot)” value (P-450SCC enzyme) read?
**A.** The value was “did not modify”.

**Q.** What about the “levels of the mature 30 kDa StAR protein” value [1] of the same molecule?
**A.** The value was “did not affect”.

**Q.** What about the “levels of the mature 30 kDa StAR protein” value ([1]; listed as Procaine) of the same molecule?
**A.** The value was “had no effect”.

**Q.** What about the “HMG-CoA reductase activity in treated cells” value (HMG-CoA reductase [2]) of the same molecule?
**A.** The value was “reduced in a dose-dependent manner”.

**Q.** What about the “HMG-CoA reductase activity in sonicated cells” value (HMG-CoA reductase [3]; 1 μM procaine) of the same molecule?
**A.** Its value is 9.9±0.01 pmol/min/mg protein.

**Q.** What about the “HMG-CoA reductase activity in sonicated cells” value (HMG-CoA reductase [3]; 10 μM procaine) of the same molecule?
**A.** The value was 10.3±0.6 pmol/min/mg protein.

**Q.** And the “HMG-CoA reductase activity in sonicated cells” value (HMG-CoA reductase [3]; 100 μM procaine)?
**A.** The value was 10.1±0.1 pmol/min/mg protein.

**Q.** And the “dbcAMP-induced HMG-CoA reductase mRNA levels” value (HMG-CoA reductase mRNA)?
**A.** The value was “inhibited; also recorded: robust”.
